Measurements as given in patent publication US20110251085A1, “IN VITRO METHOD TO DETERMINE WHETHER A DRUG CANDIDATE ACTIVE AGAINST A TARGET PROTEIN IS ACTIVE AGAINST A VARIANT OF SAID PROTEIN” (VIVALIS, priority 2008, published 2011).
Values joined by “and” are separate entries in the source; they are usually repeats but may differ in a detail not shown here. Equal values may be shown once.

Legend:
NS5BΔ21 = molecular target: T1, NS5BΔ21 (Hepatitis C virus genotype 1b, UniProt P26662); assay type: cell-based, HCV genotype 1b; conditions: selective medium lacking histidine, leucine and tryptophane, supplemented with ligand, X-Gal overlay
T1 construct: lexA/truncated HCV polymerase lacking the C-terminal 21 amino-acids fusion protein as a bait; expressed in transfected cells; host or cells: Saccharomyces cerevisiae L40, plasmid pVVS468
Procedure: Yeast cells carrying the bait (NS5BΔ21-LexA) were transformed with the prey represented by a library of random peptides (in frame with the viral VP16 activation domain). […] The interacting peptides were then tested in presence of ligands known to induce conformational changes in the bait NS5B.
The naïve yeast was transformed with the pVVS468 (NS5BΔ21 fused to LexA) according to the Lithium Acetate transformation protocol (Schiestl et al, 1989). […] Resulting double transformants were spread on SD Agar medium lacking Tryptophan and Leucine, and incubated for 48 hours at 30° C. Colonies were then scraped and mixed. 1/500th of the suspension obtained was plated on SD Agar medium lacking Tryptophan, Leucine and Histidine to identify HIS3 reporter's activation. After 3 to 5 days of growth, an X-Gal overlay was performed to identify LacZ activation. An X-Gal solution was mixed with an equal volume of 1% agarose cooled to 50° C. then poured slowly over yeast colonies on the surface of agar plates. The individual clones that stained blue were picked up to be grown overnight in deep wells in order to be further analyzed.
Yeast colonies containing a peptide interacting with the bait were grown overnight in 96-well deepwells in trp-leu-liquid medium. They were then spotted using a plugger either on trp-leu-his-or trp-leu-solid medium supplemented with different concentrations of specific or non specific drugs or an equivalent amount of solvent (DMSO). […] Result was confirmed at least 3 times.
Yeast two-hybrid experiments were carried in the L40 strain (ATCC, Molsheim, France) transformed with a lexA/truncated HCV polymerase lacking the C-terminal 21 amino-acids fusion protein as a bait and the VVS001 peptide library as a prey. […] Conformation sensitive peptides or “3D-sensors” were then identified by addition to the selected individual yeast colonies of cVVS-023477 or cVVS-023476, two anti-NS5B drugs known to induce conformational changes in the target polymerase (FIG. 1b).

ER = test: Yeast two-hybrid spot test, control clone ER + 3D-sensor No 30-2; assay type: cell-based
Description: (a) Isolation of peptides interacting with the NS5BΔ21 in the yeast two-hybrid-system. Yeast cells carrying the bait (NS5BΔ21-LexA) were transformed with the prey represented by a library of random peptides (in frame with the viral VP16 activation domain). Colonies growing on selective medium and staining blue allowed the isolation of individual peptides that would specifically interact with the polymerase. (b) Isolation of conformation sensitive peptides. The interacting peptides were then tested in presence of ligands known to induce conformational changes in the bait NS5B. The “3D-sensors” were thus identified as the ones whose binding to the target polymerase was prevented by known anti-NS5B. The corresponding colonies didn't show any expression of the selection or reporter gene. (c) Characterization of NS5BΔ21 “3D-sensors” in a spot test. Here were represented 2 selected yeast colonies: one carrying the ER and its specific peptide called No 30-2 isolated previously and used as a control, the other carrying the NS5BΔ21 and its specific peptide called N21C272. Both clones were spotted on selective medium lacking histidine, leucine and tryptophane, supplemented or not with polymerase ligands and overlayed with an X-Gal staining The NS5BΔ21+N21C272 clone grew on selective medium in the absence of any NS5B ligand and stained positive for LacZ. […]

native NS5BΔ21 = molecular target: T2, native NS5BΔ21 (Hepatitis C virus genotype 1b, UniProt P26662); test: 3D-Screen-NS5B platform, luciferase reporter, Hela cells, native NS5BΔ21; assay type: cell-based, HCV genotype 1b; conditions: for inhibition of the luciferase signal (in words): native NS5B platform, Hela cells; for IC50: native NS5BΔ21, 3D-sensor N21C272, 24 hours, read-out: IC50 (luciferase inhibition)
T2 construct: expressed in transfected cells; host or cells: Hela cells, plasmid pVVS478
Procedure: (§1) Transfections were performed for 2 hours in 100 mm dishes in 2 to 4 million cells with 5 to 20 ug of total DNA complexed to jetPEI (PolyPLus transfection, Illkirch, France) with a N/P ratio of 8 The optimal ratio between the plasmids encoding for the luciferase reporter, the target and the selected 3Dsensor was: 3 ug/1 ug/0.5 ug. Cells were dissociated and 25000 cells per well were seeded in 96 well culture treated plates (BD Biosciences, Erembodegem, Belgium).
Compound library's plates were thawed at room temperature. Drugs were handled by a Genesis workstation (Tecan, Lyon, France) and added to the cells at a 5 uM (in 0.5% DMSO) final concentration. Screening was performed by runs of twenty plates. Hits were identified by measurement of the luciferase activity.
(§2) Cell culture supernatant was discarded and 100 ul of Lysis buffer were added to each well. Following […] of vigorous shaking, the lysate was transferred to white opaque 96 well-plates and 100 ul of Luciferin buffer were added. Chemi-luminescence measurement was performed immediately using a Microlumat LB96 luminometer (Berthold, Thoiry, France) with 1 or 10 sec integration time.
Selected hits were synthesized and tested at concentrations varying between 0.01 uM and 100 uM final concentration so as to determine their IC50 on 3 independent experiments.
3D-sensors confirmed in yeast were further investigated in human cells. Among the reasons of choosing Hela cells figured their wide use, easiness of manipulation and capacity of replicating subgenomic HCV replicons (Zhu et al., 2003; Kato et al., 2005).
To validate whether drug's action on our system was stokiometric or not, Hela cells were transiently transfected with three expression plasmids encoding the reporter gene luciferase, the target protein and the conformation sensitive peptide N21C272. After incubation with increasing amounts of reference drugs cVVS-023476 or cVVS-023477, luciferase expression was measured.

NS5BΔ21 M414T mutant = molecular target: T3, NS5BΔ21 M414T mutant (Hepatitis C virus genotype 1b, UniProt P26662, M2833T); test: 3D-Screen-NS5B mutant profiling, Hela cells, M414T; assay type: cell-based, HCV genotype 1b; conditions: increasing concentrations, 24 hours
T3 construct: expressed in transfected cells; host or cells: Hela cells, plasmid pVVS516
Procedure: (§3) Percentages of reporter's inhibition were represented for cells incubated with a specific NS5B inhibitors at increasing concentrations for 24 hours.
as §1, §2
(§4) After incubation for 24 hours with increasing concentrations of cVVS023477 (a compound belonging to the Benzothiadiazin family) or cVVS-023476 (a compound belonging to the Indol N Acetamid family), luciferase expression was measured.

NS5BΔ21 S368A mutant = molecular target: T4, NS5BΔ21 S368A mutant (Hepatitis C virus genotype 1b, UniProt P26662, A2754S/A2757V/K2950R/L2476M/R2673K/S2787A/V2681I); test: 3D-Screen-NS5B mutant profiling, Hela cells, S368A; assay type: cell-based, HCV genotype 1b; conditions: increasing concentrations, 24 hours
T4 construct: expressed in transfected cells; host or cells: Hela cells, plasmid pVVS799
Procedure: as §3, §1, §2, §4

NS5BΔ21 C316Y mutant = molecular target: T5, NS5BΔ21 C316Y mutant (Hepatitis C virus genotype 1b, UniProt P26662, N2735Y); test: 3D-Screen-NS5B mutant profiling, Hela cells, C316Y; assay type: cell-based, HCV genotype 1b; conditions: increasing concentrations, 24 hours
T5 construct: truncated HCV polymerase lacking the C-terminal 21 amino-acids; expressed in transfected cells; host or cells: Hela cells
Procedure: as §3, §1, §2, §4

Hela cells = test: Cytotoxicity assay (XTT) on transfected cells; assay type: cell-based, human; conditions: 100 μM
Procedure: Viability measurements were performed on cells transfected and seeded in 96 well plates as described above and incubated with drugs for 24 hours. 0.15 mg/ml of XTT solution (Roche Diagnostics, Meylan, France) were added to each well and the plates incubated for 1 hour at 37° C. The optical density of each well's cell culture supernatant was analysed using a spectrophotometer (at 450 nm with deduction of background signal at 690 nm).

[1] = test system: NS5BΔ21 Indol sensitive mutants; assay type: cell-based, HCV genotype 1b
Procedure: as §3, §1, §2, §4

native NS4A-NS3 protease = molecular target: T6, native NS4A-NS3 protease (Hepatitis C virus genotype 1b, UniProt P26662, I1158V/V1140I); test: 3D-Screen NS4A-NS3 protease platform, luciferase reporter, Hela cells, native; assay type: cell-based, HCV genotype 1b; conditions: native NS4A-NS3 protease platform, Hela cells
T6 construct: the NS3 protease (residues 3-181); expressed in transfected cells; host or cells: Hela cells
Procedure: (§5) Cell culture supernatant was discarded and 100 ul of Lysis buffer were added to each well. Following 10 nm of vigorous shaking, the lysate was transferred to white opaque 96 well-plates and 100 ul of Luciferin buffer were added. Chemi-luminescence measurement was performed immediately using a Microlumat LB96 luminometer (Berthold, Thoiry, France) with 1 or 10 sec integration time.
3D-sensors confirmed in yeast were further investigated in Hela cells.

[2] = test system: NS5B from genotype 1a or 1b; test: Genotype profiling with the 3D-Screen platform, 3D-sensor N21I4; assay type: cell-based, HCV genotypes 1a and 1b; conditions: Huh-7 cells, genotype 1a versus 1b, increasing amounts
Description: Percentages of luciferase inhibition in the presence of the Indol Acetamid NS5B specific ligand cVVS-023476 were represented for N21 I4 peptide targeting NS5B from genotype 1a and 1b.
HCV variants are classified into six genotypes (from 1 to 6) associated with a lower case letter to indicate the subtype (Le Guillou-Guillemette et al., 2007). Since sensitivity to drugs could vary from one HCV genotype to the other (Manns et al., 2007), the investors tested whether the 3D-Screen platform could be able to discriminate such differences which is highly important for preclinical profiling of drug candidates. The inventors thus verified that the 3D-Sensor N21I4 did interact with the polymerase NS5B from genotypes 1a and 1b in Hela and Huh7 cells in an equivalent way.
Huh-7 cells were transiently transfected with three expression plasmids encoding the reporter gene luciferase, the target NS5B from genotype 1a or 1b and the conformation sensitive peptide N21I4. After incubation with increasing amounts of cVVS-023476, luciferase expression was measured.

[3] = molecular target: native NS4A-NS3 full length protein (Hepatitis C virus genotype 1b, UniProt P26662); test: 3D-Screen NS4A-NS3 full length platform, luciferase reporter, Hela cells, native; assay type: cell-based, HCV genotype 1b; parameters: the GSGS linker and the NS3 protease (residues 3-631); expressed in transfected cells; conditions: native NS4A-NS3 full length platform, Hela cells
Procedure: as §5

[4] = listed as benzothiadiazidic compound

Row | Compound | growth on selective medium and LacZ staining of the NS5BΔ21+N21C272 yeast clone (NS5BΔ21) | sensitivity of the control clone (ER + 3D sensor No 30.2 interaction) to ligand (ER) | luciferase inhibition (native NS5BΔ21; 1 uM final concentration, 24 hours, 3D-sensor N21C272, versus DMSO) | luciferase inhibition (native NS5BΔ21; 10 uM final concentration, 24 hours, 3D-sensor N21C272, versus DMSO) | inhibition of the luciferase signal (in words) (native NS5BΔ21) | IC50 (native NS5BΔ21) | reporter inhibition (in words) (NS5BΔ21 M414T mutant) | reporter inhibition (in words) (NS5BΔ21 M414T mutant; [4]) | reporter inhibition (in words) (NS5BΔ21 S368A mutant) | reporter inhibition (in words) (NS5BΔ21 C316Y mutant) | reporter inhibition (in words) (NS5BΔ21 C316Y mutant; [4]) | toxicity (in words) (Hela cells) | inhibition at 1 µM (native NS5BΔ21; HeLa, 1 uM final concentration, 24 hours, 3D-sensor N21C272, versus DMSO) | inhibition at 10 µM (native NS5BΔ21; HeLa, 10 uM final concentration, 24 hours, 3D-sensor N21C272, versus DMSO) | IC50 [1] | reporter inhibition (in words) (native NS4A-NS3 protease) | sensitivity of NS5B from two different genotypes to the drug [2] | reporter inhibition (in words) [3]
1 | N-1-cyclobutyl-4-hydroxyquinolon-3-yl-benzothiadiazin [cVVS-023477] | didn't show any growth | not affected | 51% | 90% and 83.2%+/−7.5 | strongly reduced | 3200 nM | the 50% signal inhibition was not reached | didn't show any noticeable reporter inhibition | didn't show any noticeable reporter inhibition | the 50% signal inhibition was not reached | didn't show any noticeable reporter inhibition | not toxic | – | – | – | – | – | –
2 | CCN(CC)C1CCN(C(=O)Cn2c(-c3ccc(Cl)cc3)c(C3CCCCC3)c3ccc(C(=O)O)cc32)CC1 [cVVS-023476, 1-{[6-Carboxy-2-(4-chlorophenyl)-3-cyclohexyl-1H-indol-1-yl-]acetyl}-N,N-diethylpiperidin-4-aminium Chloride] | – | – | – | – | strong inhibition | 300 nM and 200 to 2000 nM | – | – | – | – | – | – | 67% | 82.6% | 200 to 2000 nM | only on the NS5B platform | slightly different sensitivity | only on the NS5B platform
